Holding throughout (type): in vivo
The subject of experiment [1] is Polygonum convolvulus. As to the kind of experiment: Post-emergence herbicidal action against Polygonum convolvulus. Conditions: 21 DAT.
The test system of experiment [2] is Sorghum halepense. In words: Post-emergence herbicidal action against Sorghum halepense. The conditions noted are these: for Herbicidal action: 21 DAT; for Herbicidal action 21 DAT [%] against Sorghum halepense: post-emergence. How it is done: (§1) When the observed efficacies exceed the formal sum total of the values of the tests with individual applications, they also exceed the expected value according to Colby, which is calculated using the formula below and is likewise regarded as an indication of synergism (cf. S. R. Colby; in Weeds 15 (1967) p. 20 to 22): E^C=A+B−([…])
(§2) Here: • A=efficacy of the active compound (A) in % at an application rate of a g a.i./ha; • B=efficacy of the active compound (B) in % at an application rate of b g a.i./ha; • E^C=expected value of the effect of the combination (A)+(B) in % at the combined application rate a+b g a.i./ha.
(§3) Seeds or rhizome pieces of mono- and dicotyledonous weeds are placed in sandy loam in pots, covered with soil and grown in a greenhouse under good growth conditions (temperature, air humidity, water supply). Three weeks after sowing, the test plants were treated at the three-leaf stage with the compositions according to the invention. The compositions according to the invention formulated as spray powders or as emulsion concentrates were sprayed onto the green plant parts in various dosages with an application rate of 300 to 800 l/ha of water (equivalent). After the test plants have been left to stand in the greenhouse under optimal growth conditions for about 3 to 4 weeks, the action of the preparations is scored visually in comparison to untreated controls. The compositions according to the invention also have good post-emergence herbicidal activity against a broad spectrum of economically important gramineous and broadleaf weeds.

Experiment [3] deals with Brachiaria platyphylla. In words: Post-emergence herbicidal action against Brachiaria platyphylla. Conditions: for Herbicidal action: 21 DAT; for Herbicidal action 21 DAT [%] against Brachiaria platyphylla: post-emergence, block with (B1.14) Tembotrione. How it is done:
as §1, §2, §3

Experiment [4] concerns Polygonum convolvulus. In words: Post-emergence herbicidal action against Polygonum convolvulus. The conditions noted are these: g of a.i./ha: 90, 30, 45, 45 + 90, 45 + 30. From the text:
(§4) The following abbreviations are used in the description and the tables that follow: • g of a.i./ha=grams of active substance (active ingredient) (=100% active compound) per hectare; • The sum total of the effects of the individual applications is reported under E^A; • expected values according to Colby are each reported under E^C.
(§5) The rating period is reported in days after application (DAT).

Experiment [5] has as its system Amaranthus palmeri. In words: Post-emergence herbicidal action against Amaranthus palmeri. The conditions noted are these: for Herbicidal action: 21 DAT; for pest or weed control at 5 g/ha: 5 g of a.i./ha. In a few lines: (§6)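 Greenhouse pot test, sandy loam; weeds from seed or rhizome. Post-emergence spray at three-leaf stage (3 wk after sowing), 300–800 l/ha water, various dosages. Visual % efficacy vs untreated at 3–4 wk; Colby expected value used to flag synergism.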

The test system of experiment [6] is Eleusine indica. In words: Post-emergence herbicidal action against Eleusine indica. Conditions: 21 DAT.
Experiment [7] deals with Echinochloa crus-galli. As to the kind of experiment: Post-emergence herbicidal action against Echinochloa crus-galli. How it is done: as §1, §2, §3
The test system of experiment [8] is Digitaria sanguinalis. As to the kind of experiment: Post-emergence herbicidal action against Digitaria sanguinalis. Conditions: 21 DAT. Put shortly:
as §6

Experiment [9] relates to Bidens pilosa. As to the kind of experiment: Post-emergence herbicidal action against Bidens pilosa. Conditions: for Herbicidal action: 21 DAT. In a few lines:
as §6

The test system of experiment [10] is Setaria viridis. As to the kind of experiment: Post-emergence herbicidal action against Setaria viridis. Conditions: for Herbicidal action: 21 DAT. How it is done:
as §1, §2, §3

The test system of experiment [11] is Eleusine indica. As to the kind of experiment: Post-emergence herbicidal action against Eleusine indica. The conditions noted are these: (Z3) post-emergence, g of a.i./ha: 270, 90, 15, 5, 5 + 270, 15 + 90.
Text: as §4, §5

Experiment [12] has as its system Kochia scoparia. In words: Post-emergence herbicidal action against Kochia scoparia. Conditions: 21 DAT.
Experiment [13] has as its system Ranunculus repens. In words: Post-emergence herbicidal action against Ranunculus repens. The conditions noted are these: 105 g of a.i./ha. How it is done: as §1, §2
as §3, with “After the test plants have been left to stand in the greenhouse under optimal growth conditions for about 3 to 4 weeks, the action of the preparations is scored visually in comparison to untreated controls.” left out

Experiment [14] has as its system Lamium purpureum. As to the kind of experiment: Post-emergence herbicidal action against Lamium purpureum. Conditions: 105 g of a.i./ha, post-emergence. Put shortly: as §6
In experiment [15] the test system is Bellis perenne. In words: Post-emergence herbicidal action against Bellis perenne. The conditions noted are these: 105 g of a.i./ha. How it is done: as §1, §2
as §3, with “The compositions according to the invention also have good post-emergence herbicidal activity against a broad spectrum of economically important gramineous and broadleaf weeds.” left out

The test system of experiment [16] is Ephilobium hirsutum. As to the kind of experiment: Post-emergence herbicidal action against Ephilobium hirsutum. The conditions noted are these: 105 g of a.i./ha. How it is done:
as §1, §2
as §3, with “The compositions according to the invention also have good post-emergence herbicidal activity against a broad spectrum of economically important gramineous and broadleaf weeds.” left out

Experiment [17] relates to Panicum maximum. In words: Post-emergence herbicidal action against Panicum maximum. Conditions: 75 g of a.i./ha. How it is done: as §1, §2, §3
In experiment [18] the test system is Viola arvensis. In words: Post-emergence herbicidal action against Viola arvensis. Conditions: 105 g of a.i./ha. How it is done: as §1, §2
as §3, with “After the test plants have been left to stand in the greenhouse under optimal growth conditions for about 3 to 4 weeks, the action of the preparations is scored visually in comparison to untreated controls.” left out

For experiment [19], the system named is Ipomoea hederacea. In words: Post-emergence herbicidal action against Ipomoea hederacea. How it is done:
as §1, §2, §3

For experiment [20], the system named is Centaurea cyano. In words: Post-emergence herbicidal action against Centaurea cyano. Conditions: 150 g a.i./ha. In a few lines:
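Greenhouse pot-grown plants sprayed post-emergence at the three-leaf stage, three weeks after sowing, with spray-powder or emulsion-concentrate formulations at various dosages in 300 to 800 l/ha water on green parts.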

In experiment [21] the test system is Pharbitis purpurea. As to the kind of experiment: Post-emergence herbicidal action against Pharbitis purpurea. Conditions: 21 DAT; 50 g a.i./ha. In a few lines:
as §6

For experiment [22], the system named is Bromus sterilis. As to the kind of experiment: Post-emergence herbicidal action against Bromus sterilis. Conditions: 28 DAT; 150 g a.i./ha.
Experiment [23] concerns Lolium rigidum. As to the kind of experiment: Post-emergence herbicidal action against Lolium rigidum. Conditions: 28 DAT; resistant biotype; 50 g a.i./ha.
The test system of experiment [24] is Poa annua. In words: Post-emergence herbicidal action against Poa annua. Conditions: 28 DAT. In a few lines: as §6

Molecules are shown by their SMILES. Several values for one entry are separate records, joined by “and”; a condition that tells them apart may be missing. Equal entries are not always repeated. Where two headings read alike, the source gives them in different places.

With `COC(=O)[C@H]1C[C@@H](NC(=O)C2(OC)CC(c3cc(Cl)cc(Cl)c3)=NO2)CO1` (relative stereo) [Compound A1, methyl rel-(2R,4R)-4-[[3-(3,5-dichlorophenyl)-5-methoxy-4H-isoxazole-5-carbonyl]amino]tetrahydrofuran-2-carboxylate], the Herbicidal action in experiment [1] (5 g a.i./ha) was determined as 85%; in experiment [1] (45 g a.i./ha), 85%; in experiment [2] (1.7 g a.i./ha), 10%; in experiment [2] (15 g a.i./ha), 35%; in experiment [3] (1.7 g a.i./ha) it was 50%; in experiment [5] ((res.), 5 g a.i./ha) it was 10%. The Herbicidal action is 10% in experiment [5] ((res.), 15 g a.i./ha); 40% in experiment [5] ((res.), 45 g a.i./ha); 20% in experiment [6] (1.7 g a.i./ha); 20% in experiment [8] (1.7 g a.i./ha); 35% in experiment [9] (15 g a.i./ha); 15% in experiment [10] (1.7 g a.i./ha). The Herbicidal action in experiment [12] (5 g a.i./ha) amounted to 20%; in experiment [12] (15 g a.i./ha), 45%. Besides, the “Herbicidal action 21 DAT against Polygonum convolvulus” value in experiment [4] is given as 85%. Moreover, the “Herbicidal action 21 DAT against Echinochloa crus-galli” value in experiment [7] ((Z3) post-emergence, g of a.i./ha: 270, 30, 5, 5 + 270, 5 + 30) came out at 10%. Also, in experiment [9] (post-emergence, g of a.i./ha: 90, 30, 15, 15 + 90, 15 + 30), the “Herbicidal action 21 DAT against Bidens pilosa” value turned out to be 35%. The “Herbicidal action 21 DAT against Eleusine indica” value in [11] (5 g of a.i./ha) was 45%; in experiment [11] (15 g of a.i./ha), 70%.

For the compound `CS(=O)(=O)c1ccc(C(=O)C2C(=O)CCCC2=O)c([N+](=O)[O-])c1` [(B1.7) Mesotrione, mesotrione, reference compound], in experiment [13], the “Herbicidal action 43 DAT [%] against Ranunculus repens” value came out at 0%. Also, in experiment [14], the “Herbicidal action 32 DAT [%] against Lamium purpureum” value was 0%. The “Herbicidal action 43 DAT [%] against Bellis perenne” value in experiment [15] turned out to be 0%. For the same compound, the pest or weed control at 5 g/ha in experiment [5] (Amaranthus palmeri, post-emergence, 504 h, post-emergence, block with (B1.7) Mesotrione, read-out: Herbicidal action 21 DAT [%] against Amaranthus palmeri) amounted to 0%. The “Herbicidal action 43 DAT [%] against Ephilobium hirsutum” value in experiment [16] is on record as 0%. Also, the “Herbicidal action 21 DAT [%] against Bidens pilosa” value in experiment [9] (5 g of a.i./ha, post-emergence, block with (B1.7) Mesotrione) was determined as 0%; in experiment [9] (45 g of a.i./ha, post-emergence, block with (B1.7) Mesotrione), 25%. The “Herbicidal action 28 DAT [%] against Panicum maximum” value in experiment [17] stood at 0%. Also, the “Herbicidal action 43 DAT [%] against Viola arvensis” value in experiment [18] stood at 0%.

On to `CS(=O)(=O)c1ccc(C(=O)C2C(=O)CCCC2=O)c(Cl)c1COCC(F)(F)F` [(B1.14) Tembotrione, tembotrione, reference compound], for which the “Herbicidal action 21 DAT [%] against Sorghum halepense” value worked out at 30% in experiment [2] (5 g of a.i./ha) and 50% in [2] (15 g of a.i./ha). For the same compound, the “Herbicidal action 21 DAT [%] against Brachiaria platyphylla” value in [3] (15 g of a.i./ha) and in experiment [3] (45 g of a.i./ha) was 50% in each case. Further, the pest or weed control at 5 g/ha in [5] (Amaranthus palmeri, post-emergence, 504 h, post-emergence, block with (B1.14) Tembotrione, read-out: Herbicidal action 21 DAT [%] against Amaranthus palmeri) is 10%. In addition, the pest or weed control at 15 g/ha in experiment [5] (Amaranthus palmeri, post-emergence, 504 h, 15 g of a.i./ha, post-emergence, block with (B1.14) Tembotrione, read-out: Herbicidal action 21 DAT [%] against Amaranthus palmeri) was 20%. Besides, the “Herbicidal action 37 DAT [%] against Ipomoea hederacea” value in experiment [19] (37.5 g of a.i./ha, post-emergence) was found to be 0%. For the same compound, the “Herbicidal action 21 DAT [%] against Bidens pilosa” value was 10% in [9] (5 g of a.i./ha, post-emergence, block with (B1.14) Tembotrione); 25% in experiment [9] (15 g of a.i./ha, post-emergence, block with (B1.14) Tembotrione); 25% in experiment [9] (45 g of a.i./ha, post-emergence, block with (B1.14) Tembotrione). The “Herbicidal action 21 DAT [%] against Setaria viridis” value in [10] (5 g of a.i./ha, post-emergence) came out at 10%.

As to `CCS(=O)(=O)c1cccnc1S(=O)(=O)NC(=O)Nc1nc(OC)cc(OC)n1` [(B2.63) Rimsulfuron], the “Herbicidal action 37 DAT against Ipomoea hederacea” value in experiment [19] (35 g of a.i./ha) was found to be 0%.

Consider `CP(=O)(O)CCC(N)C(=O)O` (stereo not drawn) [(B7.4) Glufosinate], for which the Herbicidal action was 10% in experiment [1] (50 g a.i./ha); 20% in [1] (150 g a.i./ha); 20% in experiment [2] (50 g a.i./ha); 5% in experiment [2] (450 g a.i./ha); 70% in [3] (150 g a.i./ha); 60% in [20] (14 DAT). For the same compound, the Herbicidal action is 30% in [20] (28 DAT); 50% in experiment [5] (50 g a.i./ha); 35% in [5] ((res.), 50 g a.i./ha); 70% in [5] ((res.), 150 g a.i./ha); 15% in experiment [6] (50 g a.i./ha); 35% and 40% in experiment [6] (150 g a.i./ha). Also, the Herbicidal action in [6] (450 g a.i./ha) is given as 60%; in experiment [21], 20%; in experiment [7] (21 DAT, 150 g a.i./ha) it was 65%; in experiment [8] (450 g a.i./ha) it was 85%; in experiment [9] (50 g a.i./ha), 30%; in experiment [9] (150 g a.i./ha), 75%. Further, the Herbicidal action in experiment [9] (450 g a.i./ha) is 75% and 90%; in [10] (50 g a.i./ha) it was 40% and 20%; in experiment [22], 10%; in experiment [23], 10%; in experiment [12] (50 g a.i./ha), 20%; in [12] (450 g a.i./ha), 80%. Also, the Herbicidal action in experiment [24] (50 g a.i./ha) is listed as 20%; in experiment [24] (150 g a.i./ha) it was 30%.

Source of the values: patent US12171230B2, “Herbicidal compositions” (Bayer Aktiengesellschaft, priority 2018, dated 2024).
